The text below walks through data of patent publication US20240116985A1, “STAPLED PEPTIDES AND METHODS THEREOF” (priority 2020, published 2024).

Each structure is given as a SMILES string. Where two headings read alike, the source gives them in different places.

In data set [1] the target is T1, beta-catenin/TCF4 engagement (Homo sapiens, UniProt P35222).
T1 construct: expressed in transfected cells; host or cells: HEK293
T1 sequence (P35222 1-781): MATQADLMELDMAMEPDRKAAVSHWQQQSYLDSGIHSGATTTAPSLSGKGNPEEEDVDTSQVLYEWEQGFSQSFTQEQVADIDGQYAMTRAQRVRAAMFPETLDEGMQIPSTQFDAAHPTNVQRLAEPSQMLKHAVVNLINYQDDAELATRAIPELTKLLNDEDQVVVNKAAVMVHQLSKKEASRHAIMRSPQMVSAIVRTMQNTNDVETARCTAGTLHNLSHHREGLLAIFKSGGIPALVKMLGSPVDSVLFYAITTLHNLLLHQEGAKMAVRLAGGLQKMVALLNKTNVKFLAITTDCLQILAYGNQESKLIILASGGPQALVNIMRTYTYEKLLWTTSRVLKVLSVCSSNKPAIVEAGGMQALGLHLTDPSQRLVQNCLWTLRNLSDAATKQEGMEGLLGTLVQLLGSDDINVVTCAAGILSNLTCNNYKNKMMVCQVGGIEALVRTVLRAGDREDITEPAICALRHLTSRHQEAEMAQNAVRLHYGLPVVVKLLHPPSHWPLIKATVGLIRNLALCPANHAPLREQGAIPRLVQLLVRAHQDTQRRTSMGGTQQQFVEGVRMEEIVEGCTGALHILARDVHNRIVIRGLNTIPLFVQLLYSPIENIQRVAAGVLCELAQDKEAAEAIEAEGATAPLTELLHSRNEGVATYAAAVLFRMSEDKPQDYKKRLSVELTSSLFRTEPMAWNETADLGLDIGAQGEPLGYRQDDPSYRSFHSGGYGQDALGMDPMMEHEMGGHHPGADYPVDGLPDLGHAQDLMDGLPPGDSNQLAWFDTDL
Briefly: Nano-BRET target engagement assay (B-cat-Halo & TCF4-Luc in HEK293 cells). In kind it is cell-based. Particulars: for inhibition at 10 µM: HEK293, @ 10 uM, read-out: NanoBRET % inh @ 10 uM. A general note: In BRET a luciferase serves as donor, and the signal depends on an acceptor being close.

The nature of another data set: CHI Log D procedure. In kind it is physicochemical.
In data set [2] the target is T2, full-length beta-Catenin (Uniprot ID P35222) (Homo sapiens, UniProt P35222).
T2 construct: 10 nM full-length beta-Catenin (Uniprot ID P35222)
T2 sequence (P35222 1-781): T1 sequence (P35222 1-781)
Put plainly: Fluorescence polarization IC50 (beta-catenin / 5FAM-TCF4 10-53 competition). In kind it is binding. (In fluorescence polarisation assays a small probe gives low polarisation when free and higher when bound to something large.)

Where [3] appears, read: fluorescence polarization, read-out: beta-Catenin FP IC50.
[4] abbreviates: fluorescence polarization, beta-catenin, read-out: FP EC50.

In the case of `CC[C@H](C)[C@@H]1NC(=O)[C@H](CC(=O)O)NC(=O)[C@]2(CC=CCCCC3(CCCC=CCCCCCC[C@@](C)(C(=O)N[C@@H](Cc4ccccc4)C(=O)N[C@@H](Cc4csc5ccccc45)C(=O)N[C@@H](Cc4c[nH]cn4)C(N)=O)NC(=O)[C@H](CC(N)=O)NC(=O)[C@H](Cc4ccccc4)NC(=O)[C@H](C)NC(=O)[C@H](C)NC(=O)[C@H](CC(=O)O)NC(=O)[C@H](CC(=O)O)NC3=O)NC1=O)CCCN2C(C)=O` (stereo partly drawn) [I-470, Ac-PL3-Asp-Ile-B5-Asp-Asp-Ala-Ala-Phe-Asn-S8-Phe-BztA-His-NH2], in data set [1], the inhibition at 10 µM stood at 14.1%. Further, the “CHI Log D” value in the data set “CHI Log D procedure” (pH 7.4) is listed as 2.394. Further, the IC50 in data set [2] (setting [3]) and in data set [2] (read-out: FP EC50) was 11 nM each time.
As to `CC(=O)N1CCC[C@]12CC=CCCCC1(CCCC=CCCCCCC[C@@](C)(C(=O)N[C@@H](Cc3ccccc3)C(=O)N[C@@H](Cc3csc4ccccc34)C(=O)N[C@@H](CC(N)=O)C(N)=O)NC(=O)[C@H](CC(N)=O)NC(=O)[C@H](Cc3ccccc3)NC(=O)[C@H](C)NC(=O)[C@H](C)NC(=O)[C@H](CCC(=O)O)NC(=O)[C@H](CC(=O)O)NC1=O)NC(=O)[C@H](CC(C)C)NC(=O)[C@H](CC(=O)O)NC2=O` (stereo partly drawn) [I-752, Ac-PL3-Asp-Leu-B5-Asp-Glu-Ala-Ala-Phe-Asn-S8-Phe-BztA-Asn-NH2], the IC50 in data set [1] (Abs IC50, read-out: NanoBRET Abs IC50) turned out to be 9900 nM; in data set [1] (absolute IC50, read-out: NanoBRET Abs IC50), 9900 nM; in data set [2] (setting [3]), 16 nM; in data set [2] (read-out: FP EC50), 16 nM. In data set [1], the inhibition at 10 µM worked out at 53%. Further, in the data set “CHI Log D procedure” (pH 7.4), the “CHI Log D” value is listed as 2.419.
In the case of `CC(=O)N1CCC[C@]12CC=CCCCC1(CCCC=CCCCOC(=O)N3CC[C@@](C(=O)N[C@@H](Cc4ccsc4)C(=O)N[C@@H](Cc4csc5ccccc45)C(=O)N[C@@H](CCC(N)=O)C(N)=O)(C3)NC(=O)[C@H](CC(N)=O)NC(=O)[C@H](Cc3ccccc3)NC(=O)[C@H](C)NC(=O)[C@H](C)NC(=O)[C@H](CN(CC(=O)O)CC(F)(F)F)NC(=O)[C@H](CC(=O)O)NC1=O)NC(=O)[C@H](CC(C)(C)C)NC(=O)[C@H](CC(=O)O)NC2=O` (stereo partly drawn) [I-761, Ac-PL3-Asp-Npg-B5-Asp-TfeGA-Ala-Ala-Phe-Asn-PyrS2-3Thi-BztA-Gln-NH2], the inhibition at 10 µM in data set [1] came to 63.4%. The figures for the IC50 in data set [1] (read-out: NanoBRET IC50), in data set [2] (read-out: bCat FP IC50) and in data set [2] (read-out: beta-Catenin FP IC50) were 5000 nM, < 5 nM and 5 nM, respectively. Further, the “CHI Log D” value in the data set “CHI Log D procedure” (pH 7.4) is listed as 2.207. Moreover, the pH-dependent lipophilicity (logD) in “CHI Log D procedure” (pH 7.4) worked out at 2.2.
In the case of `CC(=O)N1CCC[C@]12CC=CCCCC1(CCCC=CCCCCOC(=O)N3CC[C@@](C(=O)N[C@@H](Cc4ccsc4)C(=O)N[C@@H](Cc4csc5ccccc45)C(=O)N[C@@H](CCC(N)=O)C(N)=O)(C3)NC(=O)[C@H](CC(N)=O)NC(=O)[C@H](Cc3ccccc3)NC(=O)[C@H](C)NC(=O)[C@H](C)NC(=O)[C@H](CC(=O)O)NC(=O)[C@H](CC(=O)O)NC1=O)NC(=O)[C@H](CC(C)(C)C)NC(=O)[C@H](CC(=O)O)NC2=O` (stereo partly drawn) [I-768, Ac-PL3-Asp-Npg-B5-Asp-Asp-Ala-Ala-Phe-Asn-PyrS3-3Thi-BztA-Gln-NH2], the IC50 stood at 31400 nM in data set [1] (read-out: NanoBRET Abs IC50), 9 nM in data set [2] (read-out: FP EC50) and 9 nM in data set [2] (read-out: beta-Catenin FP IC50). In the data set “CHI Log D procedure” (pH 7.4), the “CHI Log D” value amounted to 2.043.
Take `CC(=O)N1CCC[C@]12CC=CCCCC1(CCCC=CCCCOC(=O)N3CC[C@@](C(=O)N[C@@H](Cc4ccsc4)C(=O)N[C@@H](Cc4csc5ccccc45)C(=O)N[C@@H](CCC(N)=O)C(N)=O)(C3)NC(=O)[C@H](CO)NC(=O)[C@H](Cc3ccccc3)NC(=O)[C@H](C)NC(=O)[C@H](C)NC(=O)[C@H](Cc3cccc(C(=O)O)c3)NC(=O)[C@H](CC(=O)O)NC1=O)NC(=O)[C@H](CC(C)(C)C)NC(=O)[C@H](CC(=O)O)NC2=O` (stereo partly drawn) [I-978, Ac-PL3-Asp-Npg-B5-Asp-3COOHF-Ala-Ala-Phe-Ser-PyrS2-3Thi-BztA-Gln-NH2]: in the data set “CHI Log D procedure” (pH 7.4), the “CHI Log D” value was found to be 1.745. Moreover, the IC50 in data set [2] (setting [4]) and in data set [2] (read-out: beta-Catenin FP IC50) was 112 nM in each case.
On to `CC(=O)N1CCC[C@]12CC=CCCCC1(CCCC=CCCCOC(=O)N3CC[C@@](C(=O)N[C@@H](Cc4ccsc4)C(=O)N[C@@H](Cc4csc5ccccc45)C(=O)N[C@@H](CCC(N)=O)C(N)=O)(C3)NC(=O)[C@H](CO)NC(=O)[C@H](Cc3ccccc3)NC(=O)[C@H](C)NC(=O)[C@H](C)NC(=O)[C@H](Cc3cccc(C(=O)O)c3)NC(=O)[C@H](CC(=O)O)NC1=O)NC(=O)[C@H](CC(C)(C)C)NC(=O)[C@H](CC(=O)O)NC2=O` (stereo partly drawn) [I-979, Ac-PL3-Asp-Npg-B5-Asp-3COOHF-Ala-Ala-Phe-Ser-PyrS2-3Thi-BztA-Gln-NH2], for which the “CHI Log D” value in the data set “CHI Log D procedure” (pH 7.4) is 1.809. Besides, the IC50 in data set [2] (setting [4]) and in data set [2] (read-out: beta-Catenin FP IC50) was 240 nM throughout.
As to `CC(=O)N1CCC[C@]12CC=CCCCC1(CCCC=CCCCOC(=O)N3CC[C@@](C(=O)N[C@@H](Cc4ccccc4Cl)C(=O)N[C@@H](Cc4csc5ccccc45)C(=O)N[C@@H](CO)C(N)=O)(C3)NC(=O)[C@H](CC(C)C)NC(=O)[C@H](Cc3ccccc3)NC(=O)[C@H](C)NC(=O)[C@H](C)NC(=O)[C@H](CC(=O)O)NC(=O)[C@H](CC(=O)O)NC1=O)NC(=O)[C@H](CC(C)(C)C)NC(=O)[C@H](CC(=O)O)NC2=O` (stereo partly drawn) [I-1065, Ac-PL3-Asp-Npg-B5-Asp-Asp-Ala-Ala-Phe-Leu-PyrS2-2C1F-BztA-Ser-NH2], the “CHI Log D” value in “CHI Log D procedure” (pH 7.4) was found to be 2.044. The IC50 in data set [2] (setting [4]) and in data set [2] (read-out: beta-Catenin FP IC50) was 520 nM each time.
Turning to `CC(=O)N1CCC[C@]12CC=CCCCC1(CCCC=CCCCOC(=O)N3CC[C@@](C(=O)N[C@@H](Cc4ccccc4Cl)C(=O)N[C@@H](Cc4csc5ccccc45)C(=O)N[C@@H](CO)C(N)=O)(C3)NC(=O)[C@H](CC(C)C)NC(=O)[C@H](Cc3ccccc3)NC(=O)[C@H](C)NC(=O)[C@H](C)NC(=O)[C@H](CCC(=O)O)NC(=O)[C@H](CC(=O)O)NC1=O)NC(=O)[C@H](CC(C)(C)C)NC(=O)[C@H](CC(=O)O)NC2=O` (stereo partly drawn) [I-1067, Ac-PL3-Asp-Npg-B5-Asp-Glu-Ala-Ala-Phe-Leu-PyrS2-2C1F-BztA-Ser-NH2], the “CHI Log D” value in “CHI Log D procedure” (pH 7.4) turned out to be 2.147. Besides, the IC50 in data set [2] (setting [4]) and in data set [2] (read-out: beta-Catenin FP IC50) was 517 nM throughout.
On to `CC(=O)N1CCC[C@]12CC=CCCCC1(CCCC=CCCCOC(=O)N3CC[C@@](C(=O)N[C@@H](Cc4ccccc4Cl)C(=O)N[C@@H](Cc4csc5ccccc45)C(=O)N[C@@H](CCC(N)=O)C(N)=O)(C3)NC(=O)[C@H](CC(C)C)NC(=O)[C@H](Cc3ccccc3)NC(=O)[C@H](C)NC(=O)[C@H](C)NC(=O)[C@H](CC(=O)O)NC(=O)[C@H](CC(=O)O)NC1=O)NC(=O)[C@H](CC1CCCCC1)NC(=O)[C@H](CC(=O)O)NC2=O` (stereo partly drawn) [I-1076, Ac-PL3-Asp-Cha-B5-Asp-Asp-Ala-Ala-Phe-Leu-PyrS2-2C1F-BztA-Gln-NH2], for which the “CHI Log D” value in the data set “CHI Log D procedure” (pH 7.4) is 2.049. Also, the IC50 in data set [2] (setting [4]) and in data set [2] (read-out: beta-Catenin FP IC50) was 448 nM in each case.
Take `CC(=O)N1CCC[C@]12CC=CCCCC1(CCCC=CCCCCCC[C@@](C)(C(=O)N[C@@H](Cc3ccccc3Cl)C(=O)N[C@@H](Cc3csc4ccccc34)C(=O)N[C@@H](C(N)=O)[C@H](C)O)NC(=O)[C@H]([C@@H](C)O)NC(=O)[C@H](Cc3ccccc3)NC(=O)[C@H](C)NC(=O)[C@H](C)NC(=O)[C@H](CCC(=O)O)NC(=O)[C@H](CC(=O)O)NC1=O)NC(=O)[C@H](CC(C)(C)C)NC(=O)[C@H](CC(=O)O)NC2=O` (stereo partly drawn) [I-1094, Ac-PL3-Asp-Npg-B5-Asp-Glu-Ala-Ala-Phe-Thr-S8-2C1F-BztA-dThr-NH2]: the “CHI Log D” value in the data set “CHI Log D procedure” (pH 7.4) worked out at 3.271. For the same compound, the IC50 in data set [2] (setting [4]) and in data set [2] (read-out: beta-Catenin FP IC50) was 46 nM each time.
On to `CC(=O)N1CCC[C@]12CC=CCCCC1(CCCC=CCCCOC(=O)N3CC[C@@](C(=O)N[C@@H](Cc4ccsc4)C(=O)N[C@@H](Cc4csc5ccccc45)C(=O)N[C@@H](CCC(N)=O)C(N)=O)(C3)NC(=O)[C@H](CC(N)=O)NC(=O)[C@H](Cc3ccccc3)NC(=O)[C@H](C)NC(=O)[C@H](C)NC(=O)[C@H](CC(=O)O)NC(=O)[C@H](CC(=O)O)NC1=O)NC(=O)[C@H](CC(C)(C)C)NC(=O)[C@H](CC(=O)O)N(C)C2=O` (stereo partly drawn) [I-1160, Ac-PL3-NMeD-Npg-B5-Asp-Asp-Ala-Ala-Phe-Asn-PyrS2-3Thi-BztA-Gln-NH2], for which, in the data set “CHI Log D procedure” (pH 7.4, CHI Log D), the chromatographic logD amounted to 1.41. Besides, the IC50 in data set [2] (setting [3]) was determined as 575 nM.

As a reminder, the logD is lipophilicity at a set pH, counting ionised and neutral species. A higher logD goes with a more lipophilic compound. In general, chromatographic logD refers to lipophilicity estimated from chromatographic retention. Read a low chromatographic logD as a more hydrophilic compound.
